Experiments:
Format in all cases: in vivo
Galium aparine = assay: Post-emergence herbicidal action; details: 80 g of a.i./ha
Method: (§1) Seeds of mono- and dicotyledonous harmful plants are placed in sandy loam in cardboard pots, covered with soil and grown in the greenhouse under good growth conditions. Two to three weeks after sowing, the test plants are treated at the three-leaf stage. […] The visual scoring of the damage to the harmful plants is carried out 3-4 weeks after the treatment. Here, the compounds of Nos. 1-39, 1-40, 1-1382 and 1-2091 show an activity of at least 90% against Echinochloa crus galli. The compounds of Nos. 1-3, 1-44 and 1-2091 shown an activity of at least 90% against Abutilon theophrasti. The compounds of Nos. 1-39, 1-40 and 1-1382 show an activity of at least 90% against Veronica persica. The compounds of Nos. 1-3, 1-38, 1-39, 1-1406 and 1-1407 show an activity of at least 90% against Stellaria media.
(§2) The comparative tests of Tables 1 to 24 below show the superiority of the compounds according to the invention over the compounds known from the prior art.
(§3) • ABUTH Abutilon theophrasti ALOMY Alopecurus myosuroides • AMARE Amaranthus retroflexus AVEFA Avena fatua • CHEAL Chenopodium album ECHCG Echinochloa crus galli • GALAP Galium aparine LOLMU Lolium multiflorum • MATIN Matricaria inodora PHBPU Pharbitis purpureum • POLCO Fallopia convolvulus STEME Stellaria media • VERPE Veronica persica VIOTR Viola tricolor • XANST Xanthium strumarium Crop Plants • GLXMA Glycine max (soybeans) TRZAS Triticum aestivum (wheat) • ZEAMX Zea mays (corn)

Stellaria media [1] = assay: Post-emergence herbicidal action; details: Stellaria media, 80 g of a.i./ha, visual scoring 3-4 weeks after treatment, read-out: Herbicidal activity in % against STEME
Method: (§4) Seeds of mono- and dicotyledonous harmful plants are placed in sandy loam in cardboard pots, covered with soil and grown in the greenhouse under good growth conditions. Two to three weeks after sowing, the test plants are treated at the three-leaf stage. The compounds according to the invention, which are formulated as wettable powders or as emulsion concentrates, are sprayed at an application rate of 600 to 800 l of water/ha (converted) in a dosage of 80 grams per hectare onto the surface of the green plant parts. The visual scoring of the damage to the harmful plants is carried out 3-4 weeks after the treatment. Here, the compounds of Nos. 1-39, 1-40, 1-1382 and 1-2091 show an activity of at least 90% against Echinochloa crus galli. The compounds of Nos. 1-3, 1-44 and 1-2091 shown an activity of at least 90% against Abutilon theophrasti. The compounds of Nos. 1-39, 1-40 and 1-1382 show an activity of at least 90% against Veronica persica. The compounds of Nos. 1-3, 1-38, 1-39, 1-1406 and 1-1407 show an activity of at least 90% against Stellaria media.
as §2, §3

Xanthium strumarium [2] = assay: Post-emergence herbicidal action; details: 80 g of a.i./ha, read-out: Herbicidal activity in % against XANST
Method: as §4, §2, §3

Matricaria inodora [3] = assay: Post-emergence herbicidal action; details: Tripleurospermum inodorum, 80 g of a.i./ha, read-out: Herbicidal activity in % against MATIN
Method: as §4, §2, §3

Veronica persica [4] = assay: Post-emergence herbicidal action; details: 80 g of a.i./ha, visual scoring 3-4 weeks after treatment, read-out: Herbicidal activity in % against VERPE
Method: as §4, §2, §3

Viola tricolor [5] = assay: Post-emergence herbicidal action; details: 80 g of a.i./ha, read-out: Herbicidal activity in % against VIOTR
Method: as §4, §2, §3

Pharbitis purpureum [6] = assay: Post-emergence herbicidal action; details: 80 g of a.i./ha
Method: as §4, §2, §3

Fallopia convolvulus [7] = assay: Post-emergence herbicidal action; details: 80 g of a.i./ha
Method: as §4, §2, §3

Viola tricolor [8] = assay: Pre-emergence herbicidal action
Description: (§5) Seeds or rhizome pieces of mono- and dicotyledonous harmful plants are placed in sandy loam in pots of a diameter of 9 to 13 cm and covered with soil. The herbicides, formulated as emulsifiable concentrates or dusts, are applied to the surface of the covering soil in the form of aqueous dispersions or suspensions or emulsions at an application rate of 300 to 800 l of water/ha (converted), […] For further cultivation of the plants, the pots are then kept in a greenhouse under optimum conditions. The visual scoring of the damage to the harmful plants is carried out 3-4 weeks after the treatment. Here, the compounds of Nos. 1-3, 1-15, 1-44 and 1-1407 show an activity of at least 90% against Echinochloa crus galli. The compounds of Nos. 1-15, 1-45, 1-1407 and 1-1419 show an activity of at least 90% against Abutilon theophrasti. The compounds of Nos. 1-3, 1-45, 1-1406 and 1-1418 show an activity of at least 90% against Amaranthus retroflexus. The compounds of Nos. 1-44, 1-1406, 1-1407 and 1-1419 show an activity of at least 90% against Stellaria media.
as §2, §3

[9] = system: Triticum aestivum (wheat); assay: Post-emergence damage of crop plants; details: 80 g of a.i./ha, crop plant wheat
Method: as §1, §2, §3

Stellaria media [10] = assay: Pre-emergence herbicidal action; details: 80 g of a.i./ha
Description: as §5, §2, §3

Veronica persica [11] = assay: Pre-emergence herbicidal action; details: 80 g of a.i./ha
Description: as §5, §2, §3

Matricaria inodora [12] = assay: Pre-emergence herbicidal action; details: Tripleurospermum inodorum, read-out: Herbicidal activity in % against MATIN; for pest or weed control at 80 g/ha: 80 g of a.i./ha; for pest or weed control at 320 g/ha: 320 g of a.i./ha
Description: (§6) Seeds or rhizome pieces of mono- and dicotyledonous harmful plants are placed in sandy loam in pots of a diameter of 9 to 13 cm and covered with soil. The herbicides, formulated as emulsifiable concentrates or dusts, are applied to the surface of the covering soil in the form of aqueous dispersions or suspensions or emulsions at an application rate of 300 to 800 l of water/ha (converted), at a dosage of 320 grams per hectare. For further cultivation of the plants, the pots are then kept in a greenhouse under optimum conditions. The visual scoring of the damage to the harmful plants is carried out 3-4 weeks after the treatment. Here, the compounds of Nos. 1-3, 1-15, 1-44 and 1-1407 show an activity of at least 90% against Echinochloa crus galli. The compounds of Nos. 1-15, 1-45, 1-1407 and 1-1419 show an activity of at least 90% against Abutilon theophrasti. The compounds of Nos. 1-3, 1-45, 1-1406 and 1-1418 show an activity of at least 90% against Amaranthus retroflexus. The compounds of Nos. 1-44, 1-1406, 1-1407 and 1-1419 show an activity of at least 90% against Stellaria media.
as §2, §3

Amaranthus retroflexus = assay: Pre-emergence herbicidal action
Description: as §5, §2, §3

Abutilon theophrasti = assay: Pre-emergence herbicidal action; details: 320 g of a.i./ha, visual scoring 3-4 weeks after treatment
Description: as §6, §2, §3

Fallopia convolvulus [13] = assay: Pre-emergence herbicidal action; details: 320 g of a.i./ha
Description: as §6, §2, §3

Xanthium strumarium [14] = assay: Pre-emergence herbicidal action; details: 320 g of a.i./ha
Description: as §6, §2, §3

Pharbitis purpureum [15] = assay: Pre-emergence herbicidal action; details: 320 g of a.i./ha
Description: as §6, §2, §3

[16] = 320 g of a.i./ha, visual scoring 3-4 weeks after treatment

Cn1nc(C2CC2)c(C(=O)c2ccc(Cl)c(S(C)(=O)=O)c2Cl)c1O [drawing 58, reference compound]
Herbicidal activity in % against GALAP (Galium aparine): 40% | pest or weed control at 80 g/ha (Stellaria media [1]): 80% | pest or weed control at 80 g/ha (Xanthium strumarium [2]): 70% | pest or weed control at 80 g/ha (Matricaria inodora [3]): 0% | pest or weed control at 80 g/ha (Veronica persica [4]): 60%

CCOCCSc1c(S(C)(=O)=O)ccc(C(=O)c2c(C3CC3)nn(C)c2O)c1C
pest or weed control at 80 g/ha (Viola tricolor [5]): 80% | Herbicidal activity in % against PHBPU (Pharbitis purpureum [6]): 60% | Herbicidal activity in % against POLCO (Fallopia convolvulus [7]): 70%

CC[S+]([O-])c1c(S(C)(=O)=O)ccc(C(=O)c2c(C3CC3)nn(C)c2O)c1C (centres unmarked)
Herbicidal activity in % against VIOTR (Viola tricolor [8]; 80 g of a.i./ha): 60%

CSc1c(S(C)(=O)=O)ccc(C(=O)c2c(C3CC3)nn(C)c2O)c1C [drawing 32, reference compound]
Herbicidal activity in % against PHBPU (Pharbitis purpureum [6]): 40% | Herbicidal activity in % against POLCO (Fallopia convolvulus [7]): 50%

Cc1c(C(=O)c2c(C3CC3)nn(C)c2O)ccc(S(C)(=O)=O)c1[S+](C)[O-] (centres unmarked) [reference compound]
pest or weed control at 80 g/ha (Viola tricolor [5]): 60% | pest or weed control at 80 g/ha (Veronica persica [4]): 80% | Damage to TRZAS [9]: 50

CCSc1c(Cl)ccc(C(=O)c2c(C3CC3)nn(C)c2O)c1C [drawing 18, reference compound]
Herbicidal activity in % against STEME (Stellaria media [10]): 60% | Herbicidal activity in % against VERPE (Veronica persica [11]): 30% | pest or weed control at 80 g/ha (Matricaria inodora [12]): 30%

Cn1nc(C2CC2)c(C(=O)c2ccc(Cl)c(S(=O)(=O)CC3CC3)c2Cl)c1O [drawing 57]
Herbicidal activity in % against GALAP (Galium aparine): 70% | pest or weed control at 80 g/ha (Stellaria media [1]): 100% | pest or weed control at 80 g/ha (Xanthium strumarium [2]): 90% | pest or weed control at 80 g/ha (Matricaria inodora [3]): 50% | pest or weed control at 80 g/ha (Veronica persica [4]): 90%

Cc1c(C(=O)c2c(C3CC3)nn(C)c2O)ccc(Cl)c1SCC1CC1 [drawing 43]
Herbicidal activity in % against AMARE (Amaranthus retroflexus; 80 g of a.i./ha): 80% | Herbicidal activity in % against STEME (Stellaria media [10]): 90% | Herbicidal activity in % against VERPE (Veronica persica [11]): 70%

CSc1c(S(C)(=O)=O)ccc(C(=O)c2c(C3CC3)nn(C)c2O)c1Cl [drawing 26]
Herbicidal activity in % against AMARE (Amaranthus retroflexus; [16]): 90% | Herbicidal activity in % against VIOTR (Viola tricolor [8]; 320 g of a.i./ha): 50% | Herbicidal activity in % against ABUTH (Abutilon theophrasti): 60% | pest or weed control at 320 g/ha (Matricaria inodora [12]): 0% | Herbicidal activity in % against POLCO (Fallopia convolvulus [13]): 40%

COCCS(=O)(=O)c1c(S(C)(=O)=O)ccc(C(=O)c2c(C3CC3)nn(C)c2O)c1C [drawing 13]
Herbicidal activity in % against XANST (Xanthium strumarium [14]): 70% | Herbicidal activity in % against PHBPU (Pharbitis purpureum [15]): 60% | Herbicidal activity in % against POLCO (Fallopia convolvulus [13]): 60%

CCS(=O)(=O)c1c(S(C)(=O)=O)ccc(C(=O)c2c(C3CC3)nn(C)c2O)c1C [drawing 14, reference compound]
Herbicidal activity in % against XANST (Xanthium strumarium [14]): 0% | Herbicidal activity in % against PHBPU (Pharbitis purpureum [15]): 20% | Herbicidal activity in % against POLCO (Fallopia convolvulus [13]): 20%

COCC[S+]([O-])c1c(S(C)(=O)=O)ccc(C(=O)c2c(C3CC3)nn(C)c2O)c1C (centres unmarked) [drawing 33]
pest or weed control at 80 g/ha (Viola tricolor [5]): 70% | pest or weed control at 80 g/ha (Veronica persica [4]): 100% | Damage to TRZAS [9]: 20

COCCSc1c(S(C)(=O)=O)ccc(C(=O)c2c(C3CC3)nn(C)c2O)c1Cl [drawing 23]
Herbicidal activity in % against AMARE (Amaranthus retroflexus; [16]): 100% | Herbicidal activity in % against VIOTR (Viola tricolor [8]; 320 g of a.i./ha): 100% | Herbicidal activity in % against ABUTH (Abutilon theophrasti): 100% | pest or weed control at 320 g/ha (Matricaria inodora [12]): 60% | Herbicidal activity in % against POLCO (Fallopia convolvulus [13]): 50%

COCCSc1c(Cl)ccc(C(=O)c2c(C3CC3)nn(C)c2O)c1C [drawing 17]
Herbicidal activity in % against STEME (Stellaria media [10]): 90% | Herbicidal activity in % against VERPE (Veronica persica [11]): 90% | pest or weed control at 80 g/ha (Matricaria inodora [12]): 60%

Cc1c(C(=O)c2c(C3CC3)nn(C)c2O)ccc(S(C)(=O)=O)c1S(=O)(=O)CC1CC1 [drawing 15]
Herbicidal activity in % against XANST (Xanthium strumarium [14]): 60% | Herbicidal activity in % against PHBPU (Pharbitis purpureum [15]): 50% | Herbicidal activity in % against POLCO (Fallopia convolvulus [13]): 50%

COCC[S+]([O-])c1c(S(C)(=O)=O)ccc(C(=O)c2c(C3CC3)nn(C)c2O)c1C (centres unmarked) [drawing 11]
Herbicidal activity in % against VIOTR (Viola tricolor [8]; 80 g of a.i./ha): 70%

CSc1c(Cl)ccc(C(=O)c2c(C3CC3)nn(C)c2O)c1C [reference compound]
Herbicidal activity in % against AMARE (Amaranthus retroflexus; 80 g of a.i./ha): 70% | Herbicidal activity in % against STEME (Stellaria media [10]): 80% | Herbicidal activity in % against VERPE (Veronica persica [11]): 50%

CCSc1c(S(C)(=O)=O)ccc(C(=O)c2c(C3CC3)nn(C)c2O)c1Cl [drawing 24]
Herbicidal activity in % against AMARE (Amaranthus retroflexus; [16]): 90% | Herbicidal activity in % against VIOTR (Viola tricolor [8]; 320 g of a.i./ha): 50% | Herbicidal activity in % against ABUTH (Abutilon theophrasti): 70% | pest or weed control at 320 g/ha (Matricaria inodora [12]): 0% | Herbicidal activity in % against POLCO (Fallopia convolvulus [13]): 0%

From patent publication US7943551B2, “3-cyclopropyl-4-(3-thiobenzoyl) pyrazoles and their use as herbicides” (Bayer Cropscience AG, priority 2007, dated 2011)
